What all share (assay type): cell-based
Assay [1] concerns Bacteroides fragiris GAI 5562. Description: In vitro test on anaerobes (MIC), Example 4. The following applies: GAI5562, 18 h. As for the experimental part:
(§1) An in vitro test on anaerobes was carried out in the following manner.
(§2) Preparation of Antibacterial Substance-containing Agar Plate
(§3) The substance to be evaluated was dissolved in 100% dimethyl sulfoxide (DMSO) and diluted by 2-fold serial dilution. Each of the dilution solutions was put into a sterilized round Petri dish and mixed with 10 ml of GAM agar medium which had been sterilized and kept at 50° C., and the mixture was solidified. Final concentration of DMSO becomes 1% or less.
(§4) Preparation of Inoculation Material and Judgment of Test Results
(§5) Each strain to be tested was cultured overnight at 37° C. in GAM broth using an anaerobic culturing apparatus whose inside atmosphere had been replaced with a mixed gas system of 80% N2, 10% CO2 and 10% H2, and the resulting broth was diluted to a density of about 10^6 cells/1 ml using the same GAM broth. About 5 μl portion of the dilution was inoculated onto the surface of the drug-containing agar medium using a microplanter. The thus inoculated agar plate was cultured at 37° C. for 18 hours using the anaerobic culturing apparatus. After completion of the culturing, the agar plate was observed, and the minimum drug concentration by which cell growth was not observed was defined as MIC.

Assay [2] has as its system Bifidobacterium bifidum CAYA 21-1. Description: In vitro test on anaerobes (MIC), Example 4. The following applies: CAYA211, 18 h. As for the experimental part:
as §1, §2, §3, §4, §5

For assay [3], the system named is Peptostreptococcus productus CAYA 12-2. Description: In vitro test on anaerobes (MIC), Example 4. The following applies: Blautia producta, CAYA122, 18 h. As for the experimental part:
as §1, §2, §3, §4, §5

In assay [4] the test system is Pseudomonas aeruginosa NCTC 10490. Description: In vitro test on facultative anaerobes and aerobes (MIC), Example 3. The conditions noted are these: NCTC10490; Pseudomonas aeruginosa NCTC 10490, Muller-Hinton agar, 37° C., 18 hours. As for the experimental part:
(§6) An in vitro test on facultative anaerobes and aerobes was carried out in the following manner.
as §2
(§7) The substance to be evaluated was dissolved in 100% dimethyl sulfoxide (DMSO) and diluted by 2-fold serial dilution. Each of the dilution solutions was put into a sterilized round Petri dish and mixed with 10 ml of Muller-Hinton agar medium which had been sterilized and kept at 50° C., and the mixture was solidified. Final concentration of DMSO becomes 1% or less.
as §4
(§8) Each strain to be tested was cultured overnight in an incubator set at 37° C. using Muller-Hinton broth, and the resulting broth was diluted to a density of about 10^6 cells/1 ml using Muller-Hinton broth. About 5 μl portion of the dilution was inoculated onto the surface of the drug-containing agar medium using a microplanter. The thus inoculated agar plate was cultured at 37° C. for 18 hours in an incubator. After completion of the culturing, the agar plate was observed, and the minimum drug concentration by which cell growth was not observed was defined as MIC.

The subject of the next assay is Escherichia coli 0-1. The description is as above. The following applies: 01; Escherichia coli 0-1, Muller-Hinton agar, 37° C., 18 hours. As for the experimental part:
as §6, §2, §7, §4, §8

For assay [5], the system named is Staphylococcus aureus FDA 209P. Described as above. The conditions noted are these: FDA209P, Muller-Hinton agar, 37° C., 18 hours. As for the experimental part:
as §6, §2, §7, §4, §8

Assay [6] deals with Helicobacter pylori ATCC 43504. Description: Measurement of antibacterial activity (in vitro, MIC on Brucella agar), Example 2. The following applies: ATCC43504, Brucella agar medium (0.1% β-cyclodextrin), 37° C., 3 days (72 hours), N2 80%, CO2 15%, O2 5%. As for the experimental part: An in vitro test of the aforementioned substance was carried out in the following manner.
Measurement of antibacterial activity
as §2
The substance to be evaluated was dissolved in 100% dimethyl sulfoxide (DMSO) and diluted by 2-fold serial dilution. Each of the dilution solutions was put into a sterilized round Petri dish and mixed with 10 ml of Brucella agar medium (0.1% β-cyclodextrin) which had been sterilized and kept at 50° C., and the mixture was solidified. Final concentration of DMSO becomes 1% or less.
as §4
A Helicobacter pylori strain, for example Helicobacter pylori ATCC 43504, was cultured at 37° C. for 3 days in a multi gas incubator (N2 : 80%, CO2 : 15%, O2: 5 %) using Brucella agar medium (containing 5% calf serum albumin) and then prepared into a cell suspension of about 10^8 cells/1 ml using Brucella broth based on its turbidity. The cell suspension was diluted 100 times with Brucella broth, and about 5 μl portion of the dilution was inoculated onto the surface of the drug-containing agar medium using a microplanter. The thus inoculated agar plate was cultured at 37° C. for 3 days (72 hours) in the aforementioned multi gas incubator. […]

A further assay relates to Helicobacter pylori. As to the kind of experiment: Anti-Helicobacter pylori activity (general statement).
The next assay has as its system other bacteria. Description: Selectivity, influence upon other bacteria (general statement).

≈ marks a conversion by molar mass, not a printed value.

The MIC is the least concentration at which growth counts as inhibited.

Take `CCCCCC/C=C/Cc1c(C)c(=O)c2ccccc2n1O` [1-hydroxy-2-(2-trans-nonenyl)-3-methyl-4(1H)-quinolone]: the MIC in assay [1] is over 25 µg/mL; in assay [2] it was over 25 µg/mL; in [3] it was over 25 µg/mL; in [4] it was at least 12.5 µg/mL; in the assay on Escherichia coli 0-1 it was at least 12.5 µg/mL; in assay [5], at least 12.5 µg/mL. The compound further returned an MIC in [6] of 0.025 µg/mL (≈ 0.0835 µM).

In the case of `CCCCCC/C=C/Cc1c(C)c(=O)c2ccccc2n1O` [YL-02729S], in the assay with Helicobacter pylori, the anti-Helicobacter pylori activity result is reported as “excellent anti-Helicobacter pylori activity”. In the assay on other bacteria, the “influences upon other bacteria” value was “does not exert influences upon other bacteria” and the selectivity entry is “high selectivity”.

The values are drawn from patent US6184230A, “Anti-helicobacter pylori pharmaceutical composition” (Yamanouchi Pharmaceutical Co., Ltd., priority 1997, dated 2001).
